Values joined by “and” are separate entries in the source; they are usually repeats but may differ in a detail not shown here. Equal values may be shown once. “Also recorded” adds a separate entry of the source.

For data set [1], the target named is T1, human β2 adrenergic receptor (β2AR) (Homo sapiens, UniProt P07550).
T1 construct: made in house
As to the kind of experiment: mBBr-β2AR fluorescence spectrum after dilution to CMC or less. The class given is biochemical. Conditions: diluted with NH buffer, 30 minutes. As for the experimental part:
An experiment for comparing changes in protein structures of XMAs and DDM at CMC or less of an amphiphilic molecule was carried out.
Specifically, 0.5 μl of an unliganded mBB-labeled receptor solubilized in 20×CMC P-XMA-C11 or P-XMA-C12 at 50 μM was diluted with 500 μl of a NH buffer (20 mM HEPES pH 7.5, 100 mM NaCl). The protein was incubated for 30 minutes, and the mBBr spectrum was measured. The receptor solubilized in 0.1% DDM was diluted with a NH buffer, and used as a control.

Data set [2] has as its target T1, human β2 adrenergic receptor (β2AR). The data set can be described thus: [3H]-dihydroalprenolol radioligand binding of β2AR purified in detergent. The following applies: 10 nM [3H]-DHA, 30 minutes, room temperature. As for the experimental part:
An activation degree of a receptor (mBBr-β2AR) purified by DDM or XMAs was measured by [^3H]-dihydroalprenolol ([^3H]-DHA) binding.
Specifically, a radioligand binding assay was performed by the following method. β2AR was purified in the presence of 0.1% DDM. After β2AR was reloaded into an M1 Flag column in the presence of 2 mM CaCl2, a DDM (0.1%)-XMA (0.2%) buffer mixture was prepared in a ratio of 50:50, 20:80, 10:90, 5:95 or 0:100. The receptor was eluted in 20×CMC XMA with 5 mM EDTA and 0.2 mg/ml of a free Flag peptide. 0.1 pmol purified β2AR solubilized in DDM, P-XMA-C11, P-XMA-C12, M-XMAs or O-XMAs was incubated with 10 nM of radioactive DHA [^3H]-dihydroalprenolol (DHA) for 30 minutes at room temperature. The mixture was loaded into a G-50 column, and a flow-through was collected with a binding buffer (20 mM HEPES pH 7.5, supplemented with 0.5 mg/ml BSA, 100 mM NaCl), and further filled with 15 ml of a scintillation fluid. Receptor-binding [^3H]DHA was measured with a scintillation counter (Beckman). Non-specific binding of [^3H]-DHA was calculated by adding 1 μM of alprenolol (Sigma) in the same binding reaction. The binding degree of [^3H]-DHA was measured as a column graph.

Data set [3] is described as follows: Hydrodynamic radius and size distribution of micelles by dynamic light scattering (DLS). The format is physicochemical. Conditions: for Rh (nm), hydrodynamic radius of micelles: 1.0 wt % stated for M-/O-XMAs (FIG. 37). As for the experimental part: A method for measuring the radius of a micelle is not particularly limited, but a method well known in the art may be used, and for example, the measurement may be performed using a dynamic light scattering (DLS) experiment.
(§1) Specifically, the critical micellar concentration (CMC) was measured using fluorescence staining and diphenylhexatriene (DPH), and the hydrodynamic radii (Rh) of the micelles formed by agents were measured through a dynamic light scattering (DLS) experiment. The measured results are shown in Tables 1 and 2, compared with a conventional amphiphilic molecule (detergent), DDM.

Data set [4] in a line: Critical micelle concentration by fluorescence staining with diphenylhexatriene (DPH). The following applies: aqueous solution. The class given is physicochemical. The procedure:
While a method for measuring CMC is not particularly limited, a method widely known in the art may be used, and the measurement may be performed by, for example, a fluorescence staining method using diphenylhexatriene (DPH).
as §1

Data set [5] has as its system leucine transporter (LeuT). The data set can be described thus: LeuT long-term stability, [3H]-Leu binding by scintillation proximity assay (SPA). The format is biochemical, Aquifex aeolicus. The following applies: room temperature, 12-day incubation; for LeuT long-term stability (ligand binding activity): CMC+0.04 wt %; for LeuT ligand binding activity maintained: CMC+0.2 wt %. The procedure: An experiment for measuring the structural stability of a LeuT protein due to M-XMAs or O-XMAs was performed. Each amphiphilic compound was used at CMC+0.04 wt % (a) or CMC+0.2 wt % (b), and the ligand-binding activity of LeuT was determined using [^3H]-Leu by scintillation proximity assay (SPA). Measurement was regularly performed at room temperature during a 12-day incubation period.
Specifically, wild-type leucine transporter (LeuT) derived from thermophilic bacteria Aquifex aeolicus was purified according to a previously disclosed protocol (G. Deckert et al., Nature 1998, 392, 353-358). In summary, LeuT was expressed in E. coli C41 (DE3) incubated in lysogeny broth supplemented with 0.1 mg/ml ampicillin. Protein expression was induced by adding isopropyl β-D-thiogalactopyranoside at the final concentration of 0.1 mM. Cell membranes were isolated from disrupted cells (Constant Systems Homogenizers, Kennesaw, Ga.), and solubilized in 1% (w/v) n-dodecyl-β-D-maltopyranoside (DDM; Affymetrix, Santa Clara, Calif.). After solubilization, LeuT was fixed to a chelating Sepharose Fast Flow resin (GE Healthcare), and approximately 90 to 100% pure LeuT was eluted in 20 mM Tris-HCl (pH 7.5), 199 mM KCl, 1 mM NaCl, 0.05% (w/v) DDM and 300 mM imidazole. Afterward, the purified LeuT (approximately 1.2 mg mL^−1) was diluted 10 times with buffer which is the same as that used above and supplemented with M-XMAs and O-XMA, except DDM and imidazole, at the final concentration of CMC+0.04% (w/v) or CMC+0.2% (w/v). DDM and P-XMA-C11 were used as positive controls. Protein samples were stored at room temperature, and protein activity at a predetermined time was determined by measuring [^3H]-Leucine binding using SPA. SPA was performed using a total volume of 100 μL of […] of each protein sample solubilized in a buffer containing 450 mM NaCl, 50 nM [^3H]-Leucine and 0.125 mg ml^−1 copper chelate (His-Tag) YSi beads (Perkin Elmer, Denmark). A [^3H]-Leucine binding degree was measured using a MicroBeta liquid scintillation counter (Perkin Elmer).
On the technique in general: SPA uses beads or plates that emit light when radiolabelled molecules are held near them.

T1 sequence (P07550 whole entry): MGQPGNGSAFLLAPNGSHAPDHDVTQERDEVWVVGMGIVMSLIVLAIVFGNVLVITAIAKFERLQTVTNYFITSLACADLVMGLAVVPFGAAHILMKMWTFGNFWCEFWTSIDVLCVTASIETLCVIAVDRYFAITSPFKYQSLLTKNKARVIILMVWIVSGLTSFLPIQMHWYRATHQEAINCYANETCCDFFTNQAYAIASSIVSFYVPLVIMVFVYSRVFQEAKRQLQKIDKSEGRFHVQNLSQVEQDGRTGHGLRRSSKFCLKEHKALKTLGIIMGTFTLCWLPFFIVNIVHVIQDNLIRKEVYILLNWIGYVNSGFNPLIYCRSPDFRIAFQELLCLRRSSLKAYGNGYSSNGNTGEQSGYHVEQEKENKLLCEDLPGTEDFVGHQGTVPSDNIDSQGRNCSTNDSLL

`CCCCCCCCCCCC(CO[C@@H]1OC(CO)[C@@H](O[C@H]2OC(CO)[C@@H](O)C(O)C2O)C(O)C1O)(CO[C@@H]1OC(CO)[C@@H](O[C@H]2OC(CO)[C@@H](O)C(O)C2O)C(O)C1O)Cc1ccc(CC(CCCCCCCCCCC)(CO[C@@H]2OC(CO)[C@@H](O[C@H]3OC(CO)[C@@H](O)C(O)C3O)C(O)C2O)CO[C@@H]2OC(CO)[C@@H](O[C@H]3OC(CO)[C@@H](O)C(O)C3O)C(O)C2O)cc1` (stereo partly drawn) [P-XMA-C11]: the “structural change of β2AR on dilution to CMC or less” value in data set [1] was “less structural change”. The “[3H]-DHA binding degree of purified β2AR” value in data set [2] is listed as “radioactive-ligand binding degree similar to the receptor purified by DDM”. Moreover, in data set [3], the “Rh (nm), hydrodynamic radius of micelles” value worked out at 3.3 ± 0.03 nm. Also, the “size distribution of micelles (number of micelle sets)” value in data set [3] (FIGS. 36 and 37) is on record as “two sets of micelles having different radii”. Further, in data set [4], the “CMC” value was ~3 µM and ~3.0 µM; the “CMC (wt %)” value is listed as ~0.0006 wt %.

Turning to `CCCCCCCCCCCCC(CO[C@@H]1OC(CO)[C@@H](O[C@H]2OC(CO)[C@@H](O)C(O)C2O)C(O)C1O)(CO[C@@H]1OC(CO)[C@@H](O[C@H]2OC(CO)[C@@H](O)C(O)C2O)C(O)C1O)Cc1cccc(C[C@](CCCCCCCCCCCC)(CO[C@@H]2OC(CO)[C@@H](O[C@H]3OC(CO)[C@@H](O)C(O)C3O)C(O)C2O)CO[C@@H]2OC(CO)[C@@H](O[C@@H]3OC(CO)[C@@H](O)C(O)C3O)C(O)C2O)c1` (stereo partly drawn) [M-XMA-C12], in data set [5], the “LeuT long-term stability (ligand binding activity)” value is recorded as “substantial reinforcement of long-term stability of LeuT, compared with DDM; also recorded: higher stability than O-XMA-C12” and the “LeuT ligand binding activity maintained” value is given as “superior at maintaining the ligand binding activity of LeuT compared to DDM; also recorded: generally better performance than O-XMA-C12”. Also, the “[3H]-DHA binding degree of purified β2AR” value in data set [2] was “superior to O-XMA-C12, and similar to DDM”. For the same compound, the “Rh (nm), hydrodynamic radius of micelles” value in data set [3] was determined as 3.4 ± 0.02 nm. In data set [4], the “CMC” value is ~4.0 µM and the “CMC (wt %)” value is recorded as ~0.0008 wt %.

Take `CCCCCCCCCCCCC(CO[C@@H]1OC(CO)[C@@H](O[C@@H]2OC(CO)[C@@H](O)C(O)C2O)C(O)C1O)(CO[C@@H]1OC(CO)[C@@H](O[C@@H]2OC(CO)[C@@H](O)C(O)C2O)C(O)C1O)Cc1ccccc1CC(CCCCCCCCCCCC)(CO[C@@H]1OC(CO)[C@@H](O[C@@H]2OC(CO)[C@@H](O)C(O)C2O)C(O)C1O)CO[C@@H]1OC(CO)[C@@H](O[C@@H]2OC(CO)[C@@H](O)C(O)C2O)C(O)C1O` (stereo partly drawn) [O-XMA-C12]: in data set [5], the “LeuT long-term stability (ligand binding activity)” value is on record as “substantial reinforcement of long-term stability of LeuT, compared with DDM” and the “LeuT ligand binding activity maintained” value is “superior at maintaining the ligand binding activity of LeuT compared to DDM”. Besides, the “Rh (nm), hydrodynamic radius of micelles” value in data set [3] worked out at 3.2 ± 0.03 nm. In data set [4], the “CMC” value is ~6.0 µM and the “CMC (wt %)” value was ~0.0011 wt %.

On to `CCCCCCCCCCCC(CO[C@@H]1OC(CO)[C@@H](O[C@H]2OC(CO)[C@@H](O)C(O)C2O)C(O)C1O)(CO[C@@H]1OC(CO)[C@@H](O[C@H]2OC(CO)[C@@H](O)C(O)C2O)C(O)C1O)Cc1cccc(C[C@](CCCCCCCCCCC)(CO[C@@H]2OC(CO)[C@@H](O[C@H]3OC(CO)[C@@H](O)C(O)C3O)C(O)C2O)CO[C@@H]2OC(CO)[C@@H](O[C@@H]3OC(CO)[C@@H](O)C(O)C3O)C(O)C2O)c1` (stereo partly drawn) [M-XMA-C11], for which the “[3H]-DHA binding degree of purified β2AR” value in data set [2] is given as “higher radioactive-ligand binding degree than P-XMA-C11”. In addition, the “Rh (nm), hydrodynamic radius of micelles” value in data set [3] is 3.2 ± 0.01 nm. In data set [4], the “CMC” value is ~6.0 µM and the “CMC (wt %)” value is ~0.0011 wt %.

The record behind these values is US10647738B2, “Xylene-based amphiphilic compound and use thereof” (Industry-University Cooperation Foundation Hanyang …, priority 2016, dated 2020).
